Among the data in patent US4518779A, “1,2,3,4-Tetrahydro-1-aminomethyl-4-phenyl isoquinolines” (Pennwalt Corporation, priority 1982, dated 1985) are IC50 values, retold here.

Where a name gives a salt, the structure may show the parent alone. Read-outs that look alike come from different tables or passages of the source.

This test addresses [^3 H]-mepyramine binding in brain homogenates (Rattus norvegicus, UniProt P31390). In words: biochemical. The following applies: read-out: (^3 H)mepyramine rating: molar concentration required to inhibit by 50% the binding of [^3 H]mepyramine.
[1] abbreviates: in vitro, brain homogenates, smaller numbers indicate greater potency.

Chain of [^3 H]-mepyramine binding in brain homogenates (P31390 whole entry): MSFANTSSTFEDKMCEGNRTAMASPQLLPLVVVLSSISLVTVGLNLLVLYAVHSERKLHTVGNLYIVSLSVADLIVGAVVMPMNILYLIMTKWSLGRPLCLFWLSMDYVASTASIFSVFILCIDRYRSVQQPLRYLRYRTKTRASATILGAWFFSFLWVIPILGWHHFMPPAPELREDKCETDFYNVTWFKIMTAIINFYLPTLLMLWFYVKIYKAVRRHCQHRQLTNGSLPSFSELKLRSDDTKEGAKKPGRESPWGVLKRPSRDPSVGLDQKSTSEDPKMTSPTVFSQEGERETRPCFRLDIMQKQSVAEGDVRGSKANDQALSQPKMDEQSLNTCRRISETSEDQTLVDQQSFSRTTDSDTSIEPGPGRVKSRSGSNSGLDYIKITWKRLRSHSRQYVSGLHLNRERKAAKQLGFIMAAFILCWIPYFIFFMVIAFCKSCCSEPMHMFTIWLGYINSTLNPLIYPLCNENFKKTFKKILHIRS

In the case of `CNC[C@@H]1NC[C@H](c2ccccc2)c2ccccc21` (relative stereo) [Example 1 cis form, cis-1,2,3,4-tetrahydro-1-methylaminomethyl-4-phenylisoquinoline dihydrochloride], the IC50 worked out at 3500 nM. Same read-out and setting: the same measure for `CNC[C@@H]1NC[C@@H](c2ccccc2)c2ccccc21` (relative stereo) [Example 1 trans form, trans-1,2,3,4-tetrahydro-1-methylaminomethyl-4-phenylisoquinoline dihydrochloride]: 78 nM. `CN(C)C[C@@H]1NC[C@H](c2ccccc2)c2ccccc21` (relative stereo) [Example 2, 1,2,3,4-tetrahydro-1-dimethylaminomethyl-4-phenylisoquinoline dihydrochloride]: under setting [1], the IC50 was found to be 2800 nM.

Take `CCNC[C@@H]1NC[C@H](c2ccccc2)c2ccccc21` (relative stereo) [Example 4, 1,2,3,4-tetrahydro-1-(ethylamino)methyl-4-phenylisoquinoline dihydrochloride]: the IC50 under setting [1] was above 1000 nM.

On to `CN(C)C[C@H]1c2ccccc2[C@@H](c2ccccc2)CN1C` (relative stereo) [Example 3, 1,2,3,4-tetrahydro-2-methyl-1-dimethylaminomethyl-4-phenylisoquinoline dihydrochloride], for which the IC50 under setting [1] amounted to 1800 nM.
